Test results from patent US20220339136A1, “LIPOSOMAL TROPONOID COMPOUND FORMULATIONS” (United States Government As Represented By The Department …, priority 2019, published 2022).

Columns and labels:
[1] = test system: WT S. aureus (ATCC 25923); details: cited from earlier work
[2] = test system: Vancomycin Intermediate Staphylococcus aureus (VISA) strain AR219; details: cited from earlier work; also: key: R: resistance; S: sensitive; I: intermediate; NS: nonsusceptible
[3] = test system: Vancomycin Intermediate Staphylococcus aureus (VISA) strain AR228; details: cited from earlier work; also: key: R: resistance; S: sensitive; I: intermediate; NS: nonsusceptible
[4] = test system: Sa #10, mupirocin-resistant MDRSA; experiment: Killing of drug-resistant bacteria Sa #10; assay type: cell-based, Staphylococcus aureus; details: troponoids formulated as liposomes
Solubility = assay type: physicochemical
S. aureus [5] = details: cited from earlier work
mammal cell lines = details: cited from earlier work
S. aureus [6] = details: 4×MIC, in vitro; cited from earlier work
[7] = test system: multidrug-resistant Staphylococcus. aureus (MDRSA), including methicillin-resistant S. aureus (MRSA) strains; details: cited from earlier work
[8] = insoluble as defined herein (less than 10 mg/l); cited from earlier work

Compound | Antimicrobial susceptibility testing pattern (AST) [1] | Antimicrobial susceptibility testing pattern (AST) [2] | Antimicrobial susceptibility testing pattern (AST) [3] | further results
CO[C@@]1(NC(=O)Cc2cccs2)C(=O)N2C(C(=O)O)=C(COC(N)=O)CS[C@@H]21 [FOX, Cefoxitin] | Neg | R | R | –
CC(=O)NC[C@H]1CN(c2ccc(N3CCOCC3)c(F)c2)C(=O)O1 [LZD, Linezolid] | S | S | S | –
CO[C@H]1/C=C/O[C@@]2(C)Oc3c(C)c(O)c4c(O)c(c(/C=N/N5CCN(C)CC5)c(O)c4c3C2=O)NC(=O)/C(C)=C\C=C\[C@H](C)[C@H](O)[C@@H](C)[C@@H](O)[C@@H](C)[C@H](OC(C)=O)[C@@H]1C [RIF, Rifampin] | S | R | S | –
Penicillin | – | R | R | –
Daptomyxin | S | – | – | –
Trimethoprim-sulfamethoxazole [SXT] | S | S | S | –
CN[C@H](CC(C)C)C(=O)N[C@H]1C(=O)N[C@@H](CC(N)=O)C(=O)N[C@H]2C(=O)N[C@H]3C(=O)N[C@H](C(=O)N[C@H](C(=O)O)c4cc(O)cc(O)c4-c4cc3ccc4O)[C@H](O)c3ccc(c(Cl)c3)Oc3cc2cc(c3O[C@@H]2O[C@H](CO)[C@@H](O)[C@H](O)[C@H]2O[C@H]2C[C@](C)(N)[C@H](O)[C@H](C)O2)Oc2ccc(cc2Cl)[C@H]1O [VAN, Vancomycin] | S | I | I | –
Gentamicin | S | R | S | –
Cc1onc(-c2ccccc2)c1C(=O)N[C@@H]1C(=O)N2[C@@H]1SC(C)(C)[C@@H]2C(=O)O [OXA, Oxacillin] | S | R | R | –
C/C(=C\C(=O)OCCCCCCCCC(=O)O)C[C@@H]1OC[C@H](C[C@@H]2O[C@H]2[C@@H](C)[C@H](C)O)[C@@H](O)[C@H]1O [MUP, Mupirocin] | – | – | R | –
CC[C@H]1OC(=O)[C@H](C)[C@@H](O[C@H]2C[C@@](C)(OC)[C@@H](O)[C@H](C)O2)[C@H](C)[C@@H](O[C@@H]2O[C@H](C)C[C@H](N(C)C)[C@H]2O)[C@](C)(O)C[C@@H](C)C(=O)[C@H](C)[C@@H](O)[C@]1(C)O [ERY, Erthromycin] | S | R | R | –
COc1ccccc1C(=O)Oc1cccccc1=O [compound 285] | – | – | – | killing of mupirocin-resistant MDRSA Sa #10 [4]: can kill; solubility in DMSO (Solubility; DMSO, Gentamicin at 10 mg/mL): can be dissolved; solubility in water (Solubility; water): not quite soluble; MIC (S. aureus [5]): less than 5 μg/mL; CC50 (mammal cell lines): > 100 µM; incubation time to completely kill S. aureus (S. aureus [6]): 5 to 8 h; inhibition of MDRSA including MRSA strains [7]: can inhibit; solubility in water (reportedly) [8]: insoluble
